Results reported in patent US7297700B2, “Bicycloheteroaryl compounds as P2X7 modulators and uses thereof” (Renovis, Inc., priority 2005, dated 2007).

What follows are molecules tested on IL-1β release from THP-1 cells (assay: IL-1β Release Assay (Alternate Method), THP-1 cells). Conditions: at 0.3 μM; THP-1 cells.
Format: cell-based, human
Method in brief: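 THP-1 cells differentiated 16 h with 100 ng/mL LPS plus 100 ng/mL IFN-γ, reprimed 2 h with 100 ng/mL LPS, pretreated 30 min with compound, then challenged 45 min with 250 uM BzATP (final). Supernatant IL-1β quantified by ELISA; percent inhibition from background-adjusted levels versus untreated cells.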
`O=C(CC12CC3CC(CC(C3)C1)C2)Nc1ncnc2c1CCN(S(=O)(=O)c1cccc(Cl)c1)C2` [Compound 168] was tested, and the IL-1β % inhibition was “++++ (compound exhibited 75% or greater inhibition at 0.3 μM)”.
`O=C(CC1CCCCC1)Nc1ncnc2c1CCN(CCCO)C2` [Compound 21] was tested, and the IL-1β % inhibition was “+ (compound exhibited 0-25% inhibition at 0.3 μM)”.
With `O=C(CC12CC3CC(CC(C3)C1)C2)Nc1ncnc2c1CCN(C(=O)c1ccc(F)c(F)c1)C2` [Compound 232] the IL-1β % inhibition was “+++ (compound exhibited 50-75% inhibition at 0.3 μM)”.
In the case of `CCS(=O)(=O)N1CCc2c(ncnc2NC(=O)CC23CC4CC(CC(C4)C2)C3)C1` [Compound 148], the IL-1β % inhibition is reported as “+ (compound exhibited 0-25% inhibition at 0.3 μM)”.
`O=C(CC1CCCCCC1)Nc1ncnc2c1CCN(Cc1cccnc1)C2` [Compound 93] was tested, and the IL-1β % inhibition was “+ (compound exhibited 0-25% inhibition at 0.3 μM)”.
`Cc1cc(C(=O)N2CCc3c(ncnc3NC(=O)CC34CC5CC(CC(C5)C3)C4)C2)c(C)o1` [Compound 293] was tested, and the IL-1β % inhibition was “+++ (compound exhibited 50-75% inhibition at 0.3 μM)”.
`COc1ccccc1CCC(=O)Nc1ncnc2c1CCN(CC1CCCCC1)C2` [Compound 136] was tested, and the IL-1β % inhibition was “+ (compound exhibited 0-25% inhibition at 0.3 μM)”.
`O=C(CC12CC3CC(CC(C3)C1)C2)Nc1ncnc2c1CCN(S(=O)(=O)c1ccc(Oc3ccccn3)cc1)C2` [Compound 172] was tested, and the IL-1β % inhibition was “+++ (compound exhibited 50-75% inhibition at 0.3 μM)”.
`CCCS(=O)(=O)N1CCc2c(ncnc2NC(=O)CC23CC4CC(CC(C4)C2)C3)C1` [Compound 147] was tested, and the IL-1β % inhibition was “++++ (compound exhibited 75% or greater inhibition at 0.3 μM)”.
For `CC12CC3CC(C)(C1)CC(CC(=O)Nc1ncnc4c1CCN(C(=O)c1ccc(Cl)c(Cl)c1)C4)(C3)C2` [Compound 385], the IL-1β % inhibition was “+ (compound exhibited 0-25% inhibition at 0.3 μM)”.
In the case of `CC12CC3CC(C)(C1)CC(CC(=O)Nc1ncnc4c1CCN(S(=O)(=O)Cc1ccc(Cl)cc1)C4)(C3)C2` [Compound 379], the IL-1β % inhibition is reported as “+++ (compound exhibited 50-75% inhibition at 0.3 μM)”.
In the case of `O=C(CC12CC3CC(CC(C3)C1)C2)Nc1ncnc2c1CCN(Cc1ccc(-c3ccccc3)s1)C2` [Compound 79], the IL-1β % inhibition is reported as “+ (compound exhibited 0-25% inhibition at 0.3 μM)”.
For `Cc1ccc(CN2CCc3c(ncnc3NC(=O)CC34CC5CC(CC(C5)C3)C4)C2)s1` [Compound 66], the IL-1β % inhibition was “+ (compound exhibited 0-25% inhibition at 0.3 μM)”.
With `O=C(CC12CC3CC(CC(C3)C1)C2)Nc1ncnc2c1CCN(S(=O)(=O)c1ccc(Oc3cccnc3)cc1)C2` [Compound 174] the IL-1β % inhibition was “++++ (compound exhibited 75% or greater inhibition at 0.3 μM)”.
With `O=C(NCC1CCCCC1)c1ncnc2c1CCNC2` [Compound 2] the IL-1β % inhibition was “+ (compound exhibited 0-25% inhibition at 0.3 μM)”.
`Cc1oncc1C(=O)N1CCc2c(ncnc2NC(=O)CC23CC4CC(CC(C4)C2)C3)C1` [Compound 299] was tested, and the IL-1β % inhibition was “+ (compound exhibited 0-25% inhibition at 0.3 μM)”.
`CC12CC3CC(C)(C1)CC(CC(=O)Nc1ncnc4c1CCN(Cc1ccccc1Cl)C4)(C3)C2` [Compound 370] was tested, and the IL-1β % inhibition was “++ (compound exhibited 25-50% inhibition at 0.3 μM)”.
`O=C(CC12CC3CC(CC(C3)C1)C2)Nc1ncnc2c1CCN(Cc1ccccc1F)C2` [Compound 28] was tested, and the IL-1β % inhibition was “++++ (compound exhibited 75% or greater inhibition at 0.3 μM)”.
For `O=C(NCC1(O)CCCCCC1)c1ncnc2c1CCN(Cc1ccccc1)C2` [Compound 58], the IL-1β % inhibition was “+ (compound exhibited 0-25% inhibition at 0.3 μM)”.
In the case of `O=C(CC12CC3CC(CC(C3)C1)C2)Nc1ncnc2c1CCN(Cc1ccc3cc[nH]c3c1)C2` [Compound 332], the IL-1β % inhibition is reported as “+++ (compound exhibited 50-75% inhibition at 0.3 μM)”.
With `CS(=O)(=O)c1ccc(CN2CCc3c(ncnc3C(=O)NCC3CCCCC3)C2)cc1` [Compound 56] the IL-1β % inhibition was “+ (compound exhibited 0-25% inhibition at 0.3 μM)”.
`O=C(CC12CC3CC(CC(C3)C1)C2)Nc1ncnc2c1CCN(C(=O)c1cccc(F)c1)C2` [Compound 227] was tested, and the IL-1β % inhibition was “+ (compound exhibited 0-25% inhibition at 0.3 μM)”.
With `O=C(CC12CC3CC(CC(C3)C1)C2)Nc1ncnc2c1CCN(Cc1ccc(F)c(Cl)c1)C2` [Compound 323] the IL-1β % inhibition was “+ (compound exhibited 0-25% inhibition at 0.3 μM)”.
For `O=C(CC12CC3CC(CC(C3)C1)C2)Nc1ncnc2c1CCN(C(=O)c1cccc(Cl)c1Cl)C2` [Compound 282], the IL-1β % inhibition was “++++ (compound exhibited 75% or greater inhibition at 0.3 μM)”.
For `CC12CC3CC(C)(C1)CC(CC(=O)Nc1ncnc4c1CCN(C(=O)c1cc(F)ccc1F)C4)(C3)C2` [Compound 390], the IL-1β % inhibition was “+ (compound exhibited 0-25% inhibition at 0.3 μM)”.
With `O=C(CC12CC3CC(CC(C3)C1)C2)Nc1ncnc2c1CCN(S(=O)(=O)c1cc(Cl)cc(Cl)c1)C2` [Compound 208] the IL-1β % inhibition was “+++ (compound exhibited 50-75% inhibition at 0.3 μM)”.
With `Cc1ccc(CN2CCc3c(ncnc3NC(=O)CC34CC5CC(CC(C5)C3)C4)C2)c(C)c1` [Compound 320] the IL-1β % inhibition was “+ (compound exhibited 0-25% inhibition at 0.3 μM)”.
In the case of `O=C(CC1CCCCCC1)Nc1ncnc2c1CCN(Cc1c[nH]cn1)C2` [Compound 126], the IL-1β % inhibition is reported as “+ (compound exhibited 0-25% inhibition at 0.3 μM)”.

Same assay, conditions: at 0.3 μM; THP-1 cells, BzATP-stimulated
`O=C(c1cc(F)cc(C(F)(F)F)c1)N1CCc2c(ncnc2NC(=O)C23CC4CC(CC(C4)C2)C3)C1` [Compound 439] was tested, and the IL-1β % inhibition was “++ (compound exhibited 25-50% inhibition at 0.3 μM)”.
For `O=C(Nc1ncnc2c1CCN(S(=O)(=O)c1ccc(F)cc1F)C2)C12CC3CC(CC(C3)C1)C2` [Compound 543], the IL-1β % inhibition was “++ (compound exhibited 25-50% inhibition at 0.3 μM)”.
`O=C(Nc1ncnc2c1CCN(Cc1cc(Br)ccc1F)C2)C12CC3CC(CC(C3)C1)C2` [Compound 618] was tested, and the IL-1β % inhibition was “+ (compound exhibited 0-25% inhibition at 0.3 μM)”.
In the case of `Cc1ccc(CN2CCc3c(ncnc3NC(=O)C34CC5CC(CC(C5)C3)C4)C2)cc1C` [Compound 585], the IL-1β % inhibition is reported as “++ (compound exhibited 25-50% inhibition at 0.3 μM)”.
For `O=C(Nc1ncnc2c1CCN(Cc1ccc(Cl)cc1Cl)C2)C12CC3CC(CC(C3)C1)C2` [Compound 570], the IL-1β % inhibition was “++ (compound exhibited 25-50% inhibition at 0.3 μM)”.
`COc1ccccc1CN1CCc2c(ncnc2NC(=O)C23CC4CC(CC(C4)C2)C3)C1` [Compound 615] was tested, and the IL-1β % inhibition was “+++ (compound exhibited 50-75% inhibition at 0.3 μM)”.
`O=C(Nc1ncnc2c1CCN(S(=O)(=O)c1cc(F)ccc1F)C2)C12CC3CC(CC(C3)C1)C2` [Compound 537] was tested, and the IL-1β % inhibition was “++ (compound exhibited 25-50% inhibition at 0.3 μM)”.
For `O=C(Nc1ncnc2c1CCN(Cc1ccc(Cl)c(Cl)c1)C2)C12CC3CC(CC(C3)C1)C2` [Compound 590], the IL-1β % inhibition was “+ (compound exhibited 0-25% inhibition at 0.3 μM)”.
For `CC(C)(C)C(=O)N1CCc2c(ncnc2NC(=O)C23CC4CC(CC(C4)C2)C3)C1` [Compound 424], the IL-1β % inhibition was “+ (compound exhibited 0-25% inhibition at 0.3 μM)”.
`O=C(COCc1ccccc1)N1CCc2c(ncnc2NC(=O)C23CC4CC(CC(C4)C2)C3)C1` [Compound 428] was tested, and the IL-1β % inhibition was “+ (compound exhibited 0-25% inhibition at 0.3 μM)”.
For `O=C(Nc1ncnc2c1CCN(S(=O)(=O)c1cc(Cl)ccc1Cl)C2)C12CC3CC(CC(C3)C1)C2` [Compound 538], the IL-1β % inhibition was “++ (compound exhibited 25-50% inhibition at 0.3 μM)”.
For `COc1cc(OC)cc(C(=O)N2CCc3c(ncnc3NC(=O)C34CC5CC(CC(C5)C3)C4)C2)c1` [Compound 418], the IL-1β % inhibition was “++ (compound exhibited 25-50% inhibition at 0.3 μM)”.
